# Source: patent US20230091336A1, “CANNABINOID COMPOSITIONS” (priority 2020, published 2023)
# Marks after values point to notes of the source that are not given here.
# What was measured:
# [1] = test system: SOCE in Jurkat T cells; test: SOCE Fura-2 bioassay in Jurkat cells; assay type: cell-based, human; conditions: for effect on SOCE Ca^2+ signals, pure compounds: 10 μM, 1 μM thapsigargin, FIG. 7A, 7C; for IC50: Homo sapiens, read-out: IC50 SOCE, purified cannabinoids, Jurkat, Table 5
# [2] = test system: SOCE in HEK-293 human embryonic kidney cells; test: SOCE Fura-2 bioassay in HEK293 cells; assay type: cell-based; conditions: for IC50: Homo sapiens, HEK293, read-out: IC50 SOCE, purified cannabinoids, HEK-293, Table 5
# [3] = test system: SOCE-mediated increases in intracellular Ca^2+; test: SOCE dose-response of CBGA (FIG. 15); assay type: cell-based; conditions: read-out: IC50 inhibition of SOCE-mediated increases in intracellular Ca^2+
# From the text: (§1) Data from dose-response curves for the inhibition of TRPM7 currents (dark gray symbols) obtained in experiments shown in FIG. 14 and SOCE-mediated increases in intracellular Ca^2+ (light gray symbols) are shown in FIG. 15.
# [4] = test system: cisplatin-induced nephritis mice; test: Cisplatin-induced kidney damage mouse model; assay type: in vivo; conditions: for body-weight loss in cisplatin-induced nephritis mice / kidney weight left / kidney weight right / urine / water intake / body weight: 10 mg/kg i.p.; for body-weight loss in cisplatin-induced nephritis mice: FIG. 25; for creatinine and BUN levels, treatment group vs vehicle group: cisplatin model, first statement of b267; for kidney weight left / kidney weight right / urine / water intake / body weight: cisplatin-induced mice at day 3; for body weight: cisplatin 16 mg/kg, n = 4-5; for kidney weight normalized to body weight / magnesium regulation (serum and urine magnesium) vs cisplatin vehicle group: day 3; for kidney weight normalized to body weight: FIG. 26; for magnesium regulation (serum and urine magnesium) vs cisplatin vehicle group: FIGS. 27A-27B; for kidney function as determined by blood urea nitrogen (BUN): day 3 serum, FIG. 28; for amount of PARP-1 protein in kidney (Western blot): vs cis(+) vehicle, FIG. 30B
# Procedure: CBGA and/or CBD was injected intraperitoneally (i.p) 2 hours into C57BL/6 male mice (8 wks weighing 23-30 g) before cisplatin injection according to dosage schemes outlined below, and cisplatin-induced kidney damage was compared to normal kidneys. Sham treatment without cisplatin cis(−) was used as a negative control and cisplatin injection cis(+) without cannabinoid extract treatment was used as a positive vehicle control. Mice in group 1 (“vehicle”) received treatment with cisplatin (16 mg/kg body weight, lmg/mL in 0.90% NaCl, i.p) following intraperitoneal injection of vehicle control solution (5 mL/kg body weight) comprising 5% ethanol and 5% Tween80 in 0.9% NaCl. Mice in group 2 (“CBGA”) received treatment with cisplatin (16 mg/kg body weight, 1 mg/mL in 0.9% NaCl, i.p) following injection of CBGA (10 mg/kg body weight) 2 mg/mL in 5% ethanol, 5% Tween80 and 0.9% NaCl Mice in group 3 (“CBD”) received treatment with cisplatin (16 mg/kg body weight, 1 mg/mL in 0.9% NaCl, i.p) following intraperitoneal injection of CBD (10 mg/kg body weight) 2 mg/mL in 5% ethanol, 5% Tween80 and 0.9% NaCl. Mice in group 4 (“CBGA+CBD”) received treatment with cisplatin (16 mg/kg body weight, 1 mg/mL in 0.9% NaCl, i.p) following intraperitoneal injection of CBGA (10 mg/kg body weight)+CBD (10 mg/kg body weight) 2 mg/mL each in 5% ethanol, 5% Tween80 and 0.9% NaCl. Mice in group 5 (“cis(−)”) received sham injections comprising 0.9% NaCl (16 mL/kg body weight) following intraperitoneal injection of vehicle control solution (5 mL/kg body weight) 5% ethanol, 5% Tween80 and 0.9% NaCl.
# Mice were euthanized at Day 3 following cisplatin injection, and kidneys were harvested and stored for processing and analysis.
# Blood and urine were collected and analyzed to check kidney function. Blood was collected following euthanization, and urine was collected for 24 hrs before euthanasia in metabolic cages. […] Creatinine levels and BUN or urea value were measured from blood serum and urine samples to evaluate the kidney function. […] FIG. 29A-29B show measured creatinine levels in cisplatin-induced nephrotic mice at day 3. Urine was collected using a metabolic cage for 24 hours before sacrifice. Creatinine was assessed by an assay kit (n=4-5). Creatinine concentration in serum (FIG. 29A) and creatinine in urine (FIG. 29B) were maintained in cannabinoid-treated mice. *p<0.05 vs. cis(+) vehicle treatment group.
# PARP-1 in cisplatin- and cannabinoid-treated kidney samples was evaluated by Western blot quantification. PARP activity increases to repair DNA damage, while it induces apoptosis when the cells have severe damage and can not be repaired in cisplatin-induced inflammatory kidneys. […] (FIG. 30A) PARP-1 in kidney tissue was evaluated by quantification of Western blot results, wherein α-tubulin was used as an internal control to normalize PARP-1 band quantification. […] PARP-1 was reduced in mice treated with cisplatin and cannabinoids, relative to mice treated with cisplatin and “vehicle” solution (FIG. 30B). Densitometric analysis was performed from the result of western blotting and presented as a bar graph (n=4-5). […] The rightmost bar represents the sham treatment (“cis(−)”), wherein mice received vehicle injections instead of both cisplatin and cannabinoid extracts as a negative control. **p<0.01 vs. cis(+) vehicle treatment group. CBGA reduced the amount of PARP-1 protein detected in cisplatin-induced nephritis mice. […]
# [5] = test system: SOCE in U937 human monocytes; test: SOCE Fura-2 bioassay in U937 cells; conditions: Homo sapiens, U-937, read-out: IC50 SOCE, purified cannabinoids, U937; Table 5
# [6] = molecular target: T1, TRPM7 (Homo sapiens, UniProt Q96QT4); test: Whole-cell patch clamp of TRPM7 outward current in Jurkat cells; assay type: cell-based; set-up: endogenous in cells; host or cells: Jurkat; conditions: 10 μM
# Procedure: Inward CRAC currents were induced at −120 mV (gray trace) and outward currents at +40 mV (black trace, where CRAC currents reverse and are essentially absent). At the +40 mV voltage potential, TRPM7 channels produce monovalent outward currents. Perfusion of 50 μM IP3 activates ICRAC at −120 mV as above and the removal of intracellular ATP slowly activates TRPM7 current at +40 mV. Application of 10 μM CBGA blocks both outward TRPM7 and inward CRAC currents (see FIG. 13, black and gray traces, respectively). Without being bound by theory, CBGA may also block TRPM7's kinase activity, similar to other TRPM7 blockers such as NS8593.
# Target sequence in this assay (Q96QT4 whole entry, the tested form may be a part): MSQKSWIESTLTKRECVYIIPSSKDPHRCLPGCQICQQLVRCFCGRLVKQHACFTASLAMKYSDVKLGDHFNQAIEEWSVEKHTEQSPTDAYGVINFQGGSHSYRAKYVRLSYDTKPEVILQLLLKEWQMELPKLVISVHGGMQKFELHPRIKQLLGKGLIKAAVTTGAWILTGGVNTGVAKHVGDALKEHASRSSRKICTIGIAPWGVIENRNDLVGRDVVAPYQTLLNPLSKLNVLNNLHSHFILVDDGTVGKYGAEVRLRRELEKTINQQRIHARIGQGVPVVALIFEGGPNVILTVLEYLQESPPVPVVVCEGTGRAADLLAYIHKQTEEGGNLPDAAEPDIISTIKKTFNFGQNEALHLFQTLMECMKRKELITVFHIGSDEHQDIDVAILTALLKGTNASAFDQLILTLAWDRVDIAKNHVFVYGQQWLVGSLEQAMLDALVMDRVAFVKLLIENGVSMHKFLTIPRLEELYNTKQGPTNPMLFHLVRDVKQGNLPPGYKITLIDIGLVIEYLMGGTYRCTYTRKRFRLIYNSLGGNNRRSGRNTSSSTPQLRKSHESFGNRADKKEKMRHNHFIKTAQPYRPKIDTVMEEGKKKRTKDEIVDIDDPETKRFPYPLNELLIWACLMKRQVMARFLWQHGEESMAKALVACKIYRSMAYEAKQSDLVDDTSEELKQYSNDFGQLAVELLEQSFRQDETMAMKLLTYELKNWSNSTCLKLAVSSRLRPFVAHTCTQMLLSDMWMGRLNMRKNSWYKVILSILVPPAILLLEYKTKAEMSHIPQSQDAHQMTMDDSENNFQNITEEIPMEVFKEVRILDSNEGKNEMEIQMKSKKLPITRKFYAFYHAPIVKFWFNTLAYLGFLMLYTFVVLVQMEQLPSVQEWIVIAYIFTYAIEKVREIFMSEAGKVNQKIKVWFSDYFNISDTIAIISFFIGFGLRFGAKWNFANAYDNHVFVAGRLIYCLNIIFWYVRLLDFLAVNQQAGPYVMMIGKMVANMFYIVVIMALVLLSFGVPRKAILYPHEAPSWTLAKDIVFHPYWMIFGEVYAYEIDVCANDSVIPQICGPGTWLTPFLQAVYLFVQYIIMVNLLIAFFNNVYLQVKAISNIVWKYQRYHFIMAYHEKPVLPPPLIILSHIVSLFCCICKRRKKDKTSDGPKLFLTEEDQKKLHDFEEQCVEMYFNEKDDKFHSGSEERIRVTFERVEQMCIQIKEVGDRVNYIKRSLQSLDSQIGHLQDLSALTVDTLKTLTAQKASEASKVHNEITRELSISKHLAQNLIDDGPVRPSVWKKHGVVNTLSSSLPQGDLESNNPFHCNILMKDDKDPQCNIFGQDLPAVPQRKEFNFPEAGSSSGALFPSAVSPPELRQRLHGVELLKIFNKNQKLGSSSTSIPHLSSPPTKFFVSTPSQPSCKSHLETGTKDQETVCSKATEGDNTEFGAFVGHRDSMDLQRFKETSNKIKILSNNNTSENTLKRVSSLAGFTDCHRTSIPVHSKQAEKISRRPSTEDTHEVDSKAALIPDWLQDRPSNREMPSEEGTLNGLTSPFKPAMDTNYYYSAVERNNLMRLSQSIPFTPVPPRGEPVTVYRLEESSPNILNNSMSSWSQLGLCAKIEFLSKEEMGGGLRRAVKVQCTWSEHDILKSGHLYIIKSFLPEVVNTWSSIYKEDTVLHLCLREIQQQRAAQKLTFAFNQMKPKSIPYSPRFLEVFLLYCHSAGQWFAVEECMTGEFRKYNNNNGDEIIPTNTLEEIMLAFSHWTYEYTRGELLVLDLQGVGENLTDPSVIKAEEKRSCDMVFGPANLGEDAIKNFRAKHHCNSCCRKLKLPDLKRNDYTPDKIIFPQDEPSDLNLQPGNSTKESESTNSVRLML
# [7] = molecular target: T1, TRPM7; test: Whole-cell patch clamp of TRPM7 over-expressed in HEK293 cells; assay type: cell-based; set-up: expressed in transfected cells; host or cells: HEK293; conditions: HEK293 over-expressing TRPM7
# Procedure: Activation of TRPM7 over-expressed in HEK293 cells by perfusing the cells with intracellular solution containing 0 ATP and 0 Mg^2+, resulting in fast and maximal activation of TRPM7 outward currents at +40 mV is shown in FIG. 14.
# as §1
# Target sequence in this assay (Q96QT4 whole entry, species assumed, the tested form may be a part): as the sequence (Q96QT4 whole entry, the tested form may be a part) above
Compound,"effect on SOCE Ca^2+ signals, pure compounds [1]",IC50 [1],IC50 [2],body-weight loss in cisplatin-induced nephritis mice [4],"creatinine and BUN levels, treatment group vs vehicle group [4]",kidney weight left [4],kidney weight right [4],urine [4],water intake [4],body weight [4],kidney weight normalized to body weight [4],magnesium regulation (serum and urine magnesium) vs cisplatin vehicle group [4],kidney function as determined by blood urea nitrogen (BUN) [4],amount of PARP-1 protein in kidney (Western blot) [4],IC50 [5],further results
"CCCCCc1cc(O)c(C/C=C(\C)CCC=C(C)C)c(O)c1C(=O)O [CBGA, (E)-3-(3,7-dimethylocta-2,6-dien-1-yl)-2,4-dihydroxy-6-pentylbenzoic acid]",fully block the Ca^2+ signals,0.53 µM,3.6 µM,recovered,did not change,128 ± 8.2** mg,139 ± 10.8 mg,1.162 ± 0.128 mL,2.50 ± 0.50* mL,20.85 ± 1.29 g,No significant difference,maintained magnesium regulation,maintained kidney function,reduced,2.23 µM,"inhibitory effect in immune cells compared with non-immune HEK293 cells ([2]; 10 μM, HEK293 (FIG. 8) vs immune cells): more potent; IC50 [3]: ~2 µM; mRNA expression of inflammatory markers (TNF-α, IL-6, Cxcl10, ICAM-1, MCP-1, CRP, ET-1) in kidney ([4]; qRT-PCR, cis(+)-induced increase, FIGS. 31A-31G): significantly reduced; block of outward TRPM7 current at +40 mV [6]: blocks; block of TRPM7 current at +40 mV ([7]; 1, 3, 10 or 30 μM, 0 ATP, 0 Mg^2+): dose-dependent block; IC50 ([7]; FIG. 15, read-out: IC50 inhibition of TRPM7 currents): ~3 µM"
"C=C(C)[C@@H]1CCC(C)=C[C@H]1c1c(O)cc(CCCCC)cc1O [CBD, (1′R,2′R)-5′-methyl-4-penlyl-2′-(prop-1-en-2-yl)-1′,2′,3′,4′-tetrahydro-[1,1′-biphenyl]-2,6-diol]",low to no effects,7.42 µM,> 50 µM,didn't affect,did not change,121 ± 5.0** mg,132 ± 6.8 mg,1.042 ± 0.131 mL,1.79 ± 0.37** mL,20.23 ± 0.82* g,No significant difference,protected magnesium regulation,maintained kidney function,reduced,> 50 µM,"combinatory effect on SOCE inhibition when paired with CBGA (isobolographic analysis) ([1]; pairs expected to inhibit 50%, FIGS. 10A-10T): Simple additive"
